From US5656613A, “Treatment of hyperandrogenic conditions” (Merck & Co., Inc., priority 1995, dated 1997)
Entries after “also recorded” stand apart in the source; their conditions may differ. Like-named read-outs stand apart in the source and are kept apart here.

What was measured:
[1] = molecular target: T1, human skin (type 1) isozyme of 5α-reductase (Homo sapiens, UniProt P18405); assay: Inhibition of human skin (type 1) 5α-reductase by finasteride; type: biochemical; conditions: type 1, from ratio of rate constants; read-out: steady-state Ki *
T1 construct: made in house
T1 sequence (P18405 1-259): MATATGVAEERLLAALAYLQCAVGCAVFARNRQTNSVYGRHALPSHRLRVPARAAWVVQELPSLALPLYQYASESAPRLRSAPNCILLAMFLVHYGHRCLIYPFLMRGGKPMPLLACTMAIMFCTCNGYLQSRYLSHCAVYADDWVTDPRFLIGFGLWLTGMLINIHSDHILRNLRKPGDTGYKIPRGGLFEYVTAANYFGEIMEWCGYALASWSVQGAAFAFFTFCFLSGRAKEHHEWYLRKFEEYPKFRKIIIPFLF
Source text: (§1) When tissue extracts were the source of enzyme, the quenched reactions were clarified by centrifugation at 10,000×g before analysis.
(§2) The human isozymes were employed exclusively in this research. The native isozymes were from scalp (type 1 ) or prostate (type 2) tissues, and the recombinant forms were produced by a baculovirus expression system. Except where specified, all data refer to the prostate (type 2) isozyme, the primary target of finasteride. All of the experiments described in this application were also conducted with the recombinant type 1 isozyme, either in parallel or for confirmation.
(§3) The data for slow-binding inhibition were analyzed as reviewed by Morrison et al., Adv. Enzymol. 61:201-301 (1988). The kinetic model is shown in the Description of the Invention. The time courses were fit to an integrated first-order rate equation (Equation 1), where A is product concentration, .nu.o is the initial velocity, .nu.s is the infinite-time velocity, and kobs is the first-order rate constant for progression of the enzyme between the two equilibrium states.

[2] = molecular target: T2, human prostate (type 2) isozyme of 5α-reductase (Homo sapiens, UniProt P31213)
T2 sequence (P31213 1-254): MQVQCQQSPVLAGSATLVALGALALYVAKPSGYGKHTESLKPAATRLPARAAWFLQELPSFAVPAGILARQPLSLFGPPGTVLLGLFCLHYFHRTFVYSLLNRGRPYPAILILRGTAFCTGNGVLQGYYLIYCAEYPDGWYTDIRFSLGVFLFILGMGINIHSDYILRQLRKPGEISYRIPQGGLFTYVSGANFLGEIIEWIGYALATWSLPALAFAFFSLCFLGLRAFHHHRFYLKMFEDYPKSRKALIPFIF
Procedure: The rate constant for dissociation of the enzyme-inhibitor complex was determined from the rate of release of radioactivity from enzyme-[^3 H]finasteride complex in the presence of 100-fold excess unlabeled finasteride. The enzyme-[^3 H]finasteride complex was formed in a solution containing excess enzyme: 21.9 nM enzyme (6 mg protein, ~0.04% pure, taken from the relatively homogeneous 100,000×g supernatant fraction). […] After 2 hours, exchange was initiated by making the solution 933 nM in unlabeled finasteride (including 1% ethanol). The solution was divided into aliquots (100 μL) which were incubated at 37° C.; each day a sample was removed and frozen away at -80° C. for future determination of bound and free inhibitor.
To obtain sufficient transformed inhibitor for mass spectral analysis, a preparation of baculovirus-expressed enzyme was employed that consisted of all protein sedimenting between 1,000 to 100,000×g. […] The solution was then dialyzed overnight at 4° C. in 14,000 Da cutoff dialysis tubing (SPECTRAPOR 2) against 2 changes of 4L water containing 1 mM MOPS and 1 mM EDTA at pH 7.20.

[3] = molecular target: T1, human skin (type 1) isozyme of 5α-reductase; conditions: cited from earlier work
dihydrotestosterone = conditions: clinical trials, cited from earlier work
[4] = molecular target: T2, human prostate (type 2) isozyme of 5α-reductase; assay: Slow-binding / fixed-time inhibition of human prostate (type 2) 5α-reductase by finasteride; type: biochemical; set-up: host or cells: native human prostate tissue or recombinant from a baculovirus expression system; considered interchangeable
Procedure: as §1
Where indicated, measurements were also conducted under conditions that have more traditionally been employed for this enzyme at pH 5.50 and 37° C.
The enzyme was either used directly as a crude cell homogenate, or isolated as microsomal suspensions by differential centrifugation. In general, the tissue or cell pellet was combined with an equal volume of buffer and dispersed using a high shear force homogenizer (POLYTRON, high speed) for several minutes in an ice bath below 10° C. […] Saturating levels of cofactor were usually included to improve enzyme stability.
as §2, §3
vo =kcat (E)(S)/(Km (1+([…]))+S) Equation 2
The rate constant for conversion of the weak complex to the high-affinity one, k2, was obtained by nonlinear regression to Equation 3, which also is a function of Ki.
[(I/Ki)/(1+(S/Km)+(I/Ki)]Equation 3

[5] = molecular target: T2, human prostate (type 2) isozyme of 5α-reductase; assay: Dissociation of enzyme-[^3 H]finasteride complex (release of radioactivity), type 2; type: binding; set-up: host or cells: native human prostate tissue or recombinant from a baculovirus expression system; considered interchangeable; conditions: 21.9 nM enzyme, 9.33 nM [^3 H]finasteride, 466 μM NADPH, pH 7.2, 37° C.
Procedure: (§4) The concentrations of bound and free radioactivity were determined by ultrafiltration on 10,000 Da cutoff membranes (AMICON, Centricon-10), which were centrifuged several hours at 4° C.
(§5) Nonspecific binding was assessed by reversing the order of addition, first blocking the […] with excess unlabeled inhibitor before addition of […].

[6] = molecular target: T2, human prostate (type 2) isozyme of 5α-reductase; assay: Release of radiolabel on denaturation of enzyme-[^3 H]finasteride complex; type: binding; set-up: host or cells: native human prostate tissue or recombinant from a baculovirus expression system; considered interchangeable
Procedure: as §4, §5

[7] = molecular target: T2, human prostate (type 2) isozyme of 5α-reductase; set-up: host or cells: native human prostate tissue or recombinant from a baculovirus expression system; considered interchangeable; conditions: cited from earlier work

CC(C)(C)NC(=O)[C@H]1CC[C@H]2[C@@H]3CC[C@H]4NC(=O)C=C[C@]4(C)[C@H]3CC[C@]12C [Compound 1, 17β-(N-tert-butylcarbamoyl)-3-oxo-4-aza-5α-androst-1-ene-3-one]
Ki [1]: < 0.2 nM
inhibition on complex formation ([2]; 1.39 μM enzyme, 1.14 μM finasteride, 573 μM NADPH, pH 7.20, 45 min): 73%
[^3 H]-1,2-dihydrofinasteride as share of free tritium released from the [^3 H]finasteride-enzyme complex ([2]; off-rate experiment, one month): > 95%
untransformed [^3 H]finasteride released ([2]; off-rate experiment, one month): no untransformed [^3 H]finasteride was detected
second-order rate constant for formation of complex ([3]; skin (type 1) isozyme, Tian et al.): 4000 M⁻¹ s⁻¹
Ki ([3]; skin (type 1) isozyme, Tian et al., read-out: Ki of preliminary weak complex): 360 nM
inhibition of type 1 isozyme ([3]; skin, listed as finasteride): not a significant inhibitor of human skin (type 1 ) isozyme at doses employed in the treatment of BPH; also recorded: relatively insensitive to finasteride
time for dihydrotestosterone to return to basal levels after withdrawal (dihydrotestosterone; Stoner, Gormley et al.): two
reduction of dihydrotestosterone levels (dihydrotestosterone; circulating concentrations comparable to Ki): reduced levels of dihydrotestosterone to values approaching those found in individuals genetically deficient in the prostate isozyme
halflife for dissociation (or turnover) of enzyme-inhibitor complex, predicted from association rate ([4]; 37° C., assuming Ki * <100 pM): > 6 h
halflife of conversion to high-affinity complex ([4]; assuming minimum Ki): < 30 s
suppression of activity at infinite time ([4]; lowest practical concentrations of finasteride (2 nM)): nearly complete suppression of the activity
Ki for the preliminary complex (theoretical line, minimum value) ([4]; type 2): 100 nM
Ki ([4]; type 2 enzyme, read-out: overall equilibrium constant Ki *): < 0.1 nM
inhibition on complex formation [5]: 36%
radiolabel released on denaturation ([6]; 7M guanidine hydrochloride): > 99%
radiolabel released on denaturation ([6]; 45% aqueous ethanol): > 77%
radiolabel released on denaturation ([6]; boiling water bath, 2 minutes): > 96%
Ki ([7]; Faller et al., native human prostate enzyme, pH 7.0, read-out: dissociation constant Ki): > 150 nM
mode of inhibition ([7]; fixed-time assays, previously shown): competitive with testosterone
Ki ([7]; human prostate enzyme, as first perceived in fixed-time assays, read-out: Ki (simple, rapidly-reversible inhibitor)): 26 nM
inhibition of type 2 isozyme ([7]; prostate): potently inhibited by finasteride
Ki ([7]; read-out: Ki of essentially irreversible enzyme-inhibitor complex, Faller et al., human prostate isozyme): < 1 nM
